# Assays:
# [1] = tested on: Grpr expression in ESR1pos 1057 melanoma cells; assay: Pharmacological targeting of ERα: Grpr expression in 1057 cells; assay type: cell-based, mouse; details: 100 nM E2 or 1 µM ICI 182,780, 72 h, after oestrogen starvation for four days
# Method: (§1) RNA (3 µg) was reverse transcribed using M‐MLV reverse transcriptase (Invitrogen), according to the manufacturer’s protocol. The newly synthesized cDNA was used as a template for qPCR with the iTaq Universal SYBR Green Supermix. Technical triplicates were used for each sample and the quantified RNA normalized against TBP (human) or Hprt (mouse) as housekeeping transcripts (Supplementary Tables 9 and 10).
# (§2) For hormone depletion, FCS was stripped using the dextran-coated charcoal method. In brief, Norit activated charcoal (C6241-5G, Sigma-Aldrich, final concentration of 0.25%) and Dextran T-70 (31390, Sigma-Aldrich, final concentration of 0.0025%) in 0.25 M sucrose/1.5 mM MgCl2/10 mM HEPES (H4034, Sigma-Aldrich), pH 7.4, were incubated overnight at 4 °C. The volume equivalent to the volume of the FCS to strip was pipetted into a new 50 ml tube and centrifugated at 500g for 10 min to remove the supernatant. The FCS was incubated with the activated charcoal for 12 h at 4 °C. The treated FCS was then filtered through a 0.22-µM pore filter to ensure sterility and mixed with the appropriate phenol red-free medium and PS. Cells were collected using phenol red-free trypsin and starved for oestrogen using phenol red-free/10% stripped FCS for four days. […]
# GRPR mRNA in MCF7 cells = assay: Pharmacological targeting of ERα: GRPR mRNA in MCF7 cells; assay type: cell-based, human; details: 17β-estradiol 100 nM or ICI 182,780 1 µM
# Method: as §1, §2
# [2] = tested on: mouse melanoma cell lines (1057, 1064, 1181, 1039, 1456, 1014); assay: Matrigel invasion assay, mouse melanoma cells; assay type: cell-based; details: 24 h
# Method: Matrigel invasion assays were done in transwell plates with 8.0-µm pores (353097, Falcon) coated with 100 µl of 200 µg ml^−1 Matrigel. Depending on the experiments, cells were seeded directly or 24 h after transfection in low-serum medium (0.5% FCS for murine cells and 1% for human cell lines) with 10 nM GRP, 1 µM RC-3095, and/or 1 µM IC 182,780, or in 10% FCS. Then, 24 hours after stimulation, inserts were washed with PBS and non-invading cells were removed. Cells in the inserts were fixed in methanol at −20 °C overnight. The inserts were rinsed and the membrane carefully removed using a sharp scalpel. The membrane was mounted in prolong glass DAPI (1.5 µg ml^−1). Assays were performed in triplicate and automatic counting of invading cells was done using an Image/Fiji macro (10.5281/zenodo.14509394). Sequences of siRNAs are given in Supplementary Table 11.
# [3] = tested on: ΔEcad mouse 1057 melanoma cells; assay: RT-qPCR of β-catenin targets, Esr1 and Grpr after β-catenin inhibition; assay type: cell-based; details: ΔEcad mouse 1057 cells, iCRT3 10 μM, 48 h (with siRNA targeting Ctnnb1)
# Method: as §1
# [4] = tested on: Daju human melanoma cells; assay: RT-qPCR and western blot of ESR1/ERα after iCRT3; assay type: cell-based; details: iCRT3 80 μM, 48 h
# Method: as §1
# (§3) Whole-cell lysates were prepared and analysed as described previously. The primary antibodies used were: E-cadherin (610182, BD Transduction Laboratories, dilution 1/1,000); ERα (MA1-27107, Invitrogen, dilution 1/500); YAP (14074, Cell Signaling, dilution 1/1,000); β-actin (A5441, Sigma, dilution 1/5,000); and vinculin (4650, Cell Signaling, dilution 1/5,000). All raw data are provided in Supplementary Fig. 1.
# [5] = tested on: 1057 ΔEcad melanoma cells; assay: ICI/Fulvestrant experiments: lung metastases after tail-vein injection of 1057 cells; assay type: in vivo, C57BL/6J mice
# Method: Mouse and human melanoma cells (5 × 10^5) were suspended in 200 µl PBS and injected into the tail veins of eight-week-old C57BL/6J and NSG mice, respectively. Mice were monitored daily and weighed twice weekly. Euthanasia and autopsy were performed following 20% weight loss or reaching ethical end points.
# Right lungs were imaged using a Leica MZFLIII binocular microscope with a Scion camera. Metastases were quantified in ImageJ, with macro-metastases (bigger than 0.1 mm) and micro-metastases (0.1 mm or smaller).
# In vitro pre-treatment: 1057 melanoma cells (5 × 10^5) were pretreated for 3 days with 1 µM ICI before tail-vein injection. In vivo treatment: 1057 melanoma cells (5 × 10^5) were injected into C57BL/6J mice, followed by […] Fulvestrant (Zentiva) 3 h after injection, then weekly for 3 weeks. Mice were euthanized on day 25 after injection, and lung metastases were assessed by PCR-based Cre transgene detection. DNA was extracted from lung tissue and metastasis burden was analysed statistically.
# GRPR, Gαq/11 activation = assay: IP1 detection (HTRF IP-one Gq kit); assay type: cell-based, mouse; details: 4,000 cells, 30 min, 37 °C, StimB buffer, 10 nM GRP, 1 µM RC-3095, 1 µM ICI-182,780 (pre-treatment)
# Method: IP1 levels were quantified using the HTRF IP-one Gq detection kit (62IPAPEB, Revvity) following the manufacturer’s protocol. We treated 4,000 cells for 30 min at 37 °C in StimB buffer with 10 nM GRP, 1 µM RC-3095, 1 µM ICI-182,780 or DMSO. FRET signals (620 nm and 665 nm, excitation at 385 nm) were measured using a Clariostar plate reader (BMG Labtech).
# [6] = molecular target: T1, ERα in 1057 mouse melanoma cells (Mus musculus, UniProt P19785); assay: Western blot of ERα after ICI; assay type: cell-based; details: 1057 cells, ICI 1 μM, 24 h
# T1 construct: Effect of ICI treatment on ERα protein levels in murine 1057 melanoma cells; endogenous in cells; host or cells: 1057 mouse melanoma cells (female, ΔEcad, Esr1-positive)
# T1 sequence (P19785 1-599): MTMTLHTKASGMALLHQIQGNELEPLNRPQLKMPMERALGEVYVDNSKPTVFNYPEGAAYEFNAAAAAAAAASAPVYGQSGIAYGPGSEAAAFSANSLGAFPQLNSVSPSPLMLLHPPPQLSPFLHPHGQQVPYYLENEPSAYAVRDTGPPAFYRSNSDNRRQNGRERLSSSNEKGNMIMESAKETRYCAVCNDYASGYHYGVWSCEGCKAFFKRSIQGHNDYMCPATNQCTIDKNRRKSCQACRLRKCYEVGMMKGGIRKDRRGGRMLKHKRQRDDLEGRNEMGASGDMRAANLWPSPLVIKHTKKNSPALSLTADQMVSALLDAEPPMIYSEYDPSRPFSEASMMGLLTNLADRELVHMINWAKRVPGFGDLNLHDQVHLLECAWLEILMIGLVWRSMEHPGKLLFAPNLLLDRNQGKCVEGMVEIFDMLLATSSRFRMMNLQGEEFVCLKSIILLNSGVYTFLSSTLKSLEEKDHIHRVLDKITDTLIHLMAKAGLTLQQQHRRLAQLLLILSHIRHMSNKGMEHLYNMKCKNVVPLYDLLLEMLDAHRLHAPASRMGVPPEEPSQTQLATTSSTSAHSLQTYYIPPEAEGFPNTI
# Method: as §3
# [7] = Metabolic stability assay (liver microsomes); assay type: in vitro ADME, mouse
# Method: Each compound was diluted to a final concentration of 1 µM in 100 mM phosphate buffer (pH 7.4) containing 0.5 mg ml^−1 mouse liver microsomes, 1 mM NADPH regenerating system and 1 mM MgCl2 and incubated at 37 °C for 1 h. At various time points (0, 2, 10, 20, 40 and 60 min), one volume of ice-cold acetonitrile was added and the supernatants were analysed by LC–MS/MS. To obtain a stability curve, the percentage of remaining test compound at each time point was determined by monitoring the peak area. The half-life was estimated from the slope of the initial linear range of the logarithmic curve of the remaining compound (percentage) against time, assuming first-order kinetics.
# Analyses were done on a Shimadzu 8030 LC–MS instrument. Chromatographic separations were done at 40 °C using a 2.6-µm C18 Kinetex column (50 × 2.1 mm; Phenomenex). The mobile phase flow rate was set to 0.5 ml min^−1 and the following program applied for the elution: 0 min, 5% B; 0–1.2 min, 5–95% B; 1.2–1.4 min, 95% B; 1.4–1.42 min, 95-5% B; and 1.42–2.8 min, 5% B (solvent A, 0.05% formic acid in water; solvent B, acetonitrile). The injection volume was 1 µl. The mass spectrometer was interfaced with the liquid-chromatography system using an electrospray ion source. The nitrogen nebulizing gas flow was set to 1.5 l min^−1 and the drying gas flow to 15 ml min^−1. […]
smiles,measurement,setting,value
"C[C@]12CC[C@@H]3c4ccc(O)cc4CC[C@H]3[C@@H]1CC[C@@H]2O [E2, 17β-oestradiol]",Grpr expression,[1],increased Grpr expression
same,GRPR mRNA expression,GRPR mRNA in MCF7 cells,increased GRPR
CCc1ccc(-c2nc(CSCC(=O)NCCc3ccccc3)c(C)o2)cc1 [iCRT3],GRP-induced invasion after β-catenin inhibition,"[2]; 1057 cells, iCRT3 and/or GRP",reduced GRP-induced invasion
same,"expression of Nkd1, Esr1 and Grpr (RT-qPCR)",[3],"decreased the expression of Nkd1, Esr1 and Grpr"
same,ERα levels at RNA and protein level,[4],reduction
"C[C@]12CC[C@@H]3c4ccc(O)cc4C[C@@H](CCCCCCCCC[S+]([O-])CCCC(F)(F)C(F)(F)F)[C@H]3[C@@H]1CC[C@@H]2O (stereo partly shown) [ICI 182,780]",Visible metastases (%): mice with visible lung metastases / mice injected,[5],1/6
same,mice with no metastases,"[5]; Fulvestrant 50 mg per kg 3 h after injection of 1057 cells and weekly for three weeks, day 25",5 of 6
same,"Metastatic burden in lungs, qPCR for the 1057-specific Cre transgene","[5]; Fulvestrant-treated mice (50 mg per kg), day 25",reduced
same,"Metastatic burden in lungs, qPCR for the 1057-specific Cre transgene","[5]; ICI-pretreated 1057 cells, day 25",reduced
same,mice with no visible metastases,"[5]; mice injected with ICI-pretreated 1057 cells (3 days, 1 µM), day 25, control 1 of 11",9 of 13
same,"invasion potential of 1057 cells, ICI alone",[2]; 1 µM ICI without GRP,no effect
same,"invasion (number of invading cells), GRPR-positive mouse lines","[2]; 1057 (also 1064, GRPR-transduced 1014 and 1181 for RC-3095), 10 nM GRP, 1 µM RC-3095 and/or 1 µM ICI, Matrigel 200 µg ml−1, 0.5% FCS",significantly reduced
same,"invasion (number of invading cells), Grpr-negative mouse lines","[2]; 1181 male Ecad, 1039 female Ecad, 1456 male ΔEcad, 10 nM GRP and/or 1 µM ICI",no effect
same,"IP1 production, GRPR-positive cells","GRPR, Gαq/11 activation",reduced IP1 production
same,Grpr expression,[1],reduced it
same,GRPR mRNA expression,GRPR mRNA in MCF7 cells,significantly decreased
same,ERα protein level,[6],reduced
COc1ccc(C2(CNC(=O)[C@](C)(Cc3c[nH]c4ccccc34)NC(=O)Nc3ccc([N+](=O)[O-])cc3)CCCCC2)nc1 [PD-176252],Metabolic stability: t1/2,"[7]; mouse, pH 7.4",1.5 ± 0.1 min
CC(C)C[C@@H](CN[C@@H](CC(C)C)C(N)=O)NC(=O)[C@H](Cc1c[nH]cn1)NC(=O)CNC(=O)[C@@H](NC(=O)[C@H](C)NC(=O)[C@H](Cc1c[nH]c2ccccc12)NC(=O)[C@H](CCC(N)=O)NC(=O)[C@H]1Cc2c([nH]c3ccccc23)CN1)C(C)C [RC-3095],"metabolic stability, comparison of the two GRPR antagonists","[7]; RC-3095 versus PD-176252, murine plasma and liver microsomes",higher metabolic stability

# Source: PMC12267067, “Targeting GRPR for sex hormone-dependent cancer after loss of E-cadherin” (Nature, 2025)
